Measured values as given in PubChem BioAssay (NCI).
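The compound was tested at five concentrations on cells cultured in 96-well plates, with a 48-hour exposure period. At the GI50, growth is halved. TGI: total growth inhibition.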

Experiments:
Assay in all cases: NCI-60 cell line screen, 48 h
SF-295 CNS = test system: SF-295 CNS
BT-549 breast = test system: BT-549 breast
MOLT-4 leukemia = test system: MOLT-4 leukemia
OVCAR-3 ovarian = test system: OVCAR-3 ovarian
MDA-MB-231 breast = test system: MDA-MB-231 breast
HOP-92 NSCLC = test system: HOP-92 NSCLC
OVCAR-8 ovarian = test system: OVCAR-8 ovarian
RXF 393 renal = test system: RXF 393 renal
EKVX NSCLC = test system: EKVX NSCLC
ACHN renal = test system: ACHN renal
OVCAR-5 ovarian = test system: OVCAR-5 ovarian
MALME-3M melanoma = test system: MALME-3M melanoma
K-562 leukemia = test system: K-562 leukemia
HCT-15 colon = test system: HCT-15 colon
NCI-H23 lung = test system: NCI-H23 lung
SNB-19 CNS = test system: SNB-19 CNS
786-0 renal = test system: 786-0 renal
SK-MEL-2 melanoma = test system: SK-MEL-2 melanoma
MDA-MB-468 breast = test system: MDA-MB-468 breast
T-47D breast = test system: T-47D breast
CCRF-CEM leukemia = test system: CCRF-CEM leukemia
UO-31 renal = test system: UO-31 renal
SF-539 CNS = test system: SF-539 CNS
HT29 colon = test system: HT29 colon
MDA-MB-435 = test system: MDA-MB-435
HCC-2998 colon = test system: HCC-2998 colon
OVCAR-4 ovarian = test system: OVCAR-4 ovarian
NCI/ADR-RES ovarian = test system: NCI/ADR-RES ovarian
SW-620 colon = test system: SW-620 colon
M14 melanoma = test system: M14 melanoma

## CCCCN1C(=O)/C(=C\C(=O)c2cc3ccccc3oc2=O)c2ccccc21
SF-295 CNS
  GI50: > 100 µM
  TGI: > 100 µM
BT-549 breast
  GI50: 19.4 µM
  TGI: 70.1 µM
MOLT-4 leukemia
  GI50: 22.4 µM
  TGI: 64 µM
OVCAR-3 ovarian
  GI50: 15.2 µM
  TGI: 29.7 µM
MDA-MB-231 breast
  GI50: 14.3 µM
  TGI: 27.6 µM
HOP-92 NSCLC
  GI50: 13 µM
  TGI: 27.7 µM
OVCAR-8 ovarian
  GI50: 18.3 µM
  TGI: 47.5 µM
RXF 393 renal
  GI50: 15.7 µM
  TGI: 29.6 µM
EKVX NSCLC
  GI50: 15.5 µM
  TGI: 32 µM
ACHN renal
  GI50: 13.4 µM
  TGI: 26.1 µM
OVCAR-5 ovarian
  GI50: 30.6 µM
  TGI: > 100 µM
MALME-3M melanoma
  GI50: 13.7 µM
  TGI: 26.7 µM
K-562 leukemia
  GI50: 11.6 µM
  TGI: 84.7 µM
HCT-15 colon
  GI50: 15.6 µM
  TGI: 30.7 µM
NCI-H23 lung
  GI50: 27.4 µM
  TGI: > 100 µM
SNB-19 CNS
  GI50: > 100 µM
  TGI: > 100 µM
786-0 renal
  GI50: 18 µM
  TGI: 31.9 µM
SK-MEL-2 melanoma
  GI50: 52 µM
  TGI: > 100 µM
MDA-MB-468 breast
  GI50: 4.5 µM
  TGI: 17.8 µM
T-47D breast
  GI50: 14 µM
  TGI: 28.7 µM
CCRF-CEM leukemia
  GI50: 4.26 µM
  TGI: 24.2 µM
UO-31 renal
  GI50: 11.4 µM
  TGI: 23.7 µM
SF-539 CNS
  GI50: 16.2 µM
  TGI: 30 µM
HT29 colon
  GI50: 20.3 µM
  TGI: 41.2 µM
MDA-MB-435
  GI50: 17.6 µM
  TGI: 41.6 µM
HCC-2998 colon
  GI50: > 100 µM
  TGI: > 100 µM
OVCAR-4 ovarian
  GI50: 16.9 µM
  TGI: 35.4 µM
NCI/ADR-RES ovarian
  GI50: 22.9 µM
  TGI: 64.3 µM
SW-620 colon
  GI50: 14.3 µM
  TGI: 29.7 µM
M14 melanoma
  GI50: 14.8 µM
